The conditions of data set [1]: DTA.
The nature of data set [2]: Molar enthalpy of transition or fusion. The settings on record: DSC.

Numbers after ± are expanded uncertainties.

With `CCCCCCCCCC[NH2+]CCCCCCCCCC.[Br-]` [N-decyldecan-1-aminium bromide], in data set [1] (Crystal 2), the Triple point temperature was determined as 330.1 ± 3 K. For the same compound, the “Molar enthalpy of transition or fusion” value in data set [2] (Crystal 2) is 9.08 ± 0.478 kcal/mol.
For the compound `CCCCCCCCCC[NH2+]CCCCCCCCCC.O=P([O-])(O)O` [N-decyldecan-1-aminium dihydrogen phosphate], the Triple point temperature in data set [1] (Crystal 2) is listed as 354.1 ± 3 K. In addition, in data set [2] (Crystal 2), the “Molar enthalpy of transition or fusion” value is 14.6 ± 0.478 kcal/mol.
As to `CCCCCCCCCC[NH2+]CCCCCCCCCC.O=[N+]([O-])[O-]` [N-decyldecan-1-aminium nitrate], in data set [1] (Crystal 2), the Triple point temperature is 333.1 ± 3 K. For the same compound, in data set [2] (Crystal 2), the “Molar enthalpy of transition or fusion” value was 15.3 ± 0.239 kcal/mol.
`CCCCCCCCCCCC[NH2+]CCCCCCCCCCCC.[Br-]` [N-dodecyldodecan-1-aminium bromide]: in data set [1] (Crystal 2), the Triple point temperature was found to be 346.1 ± 3 K. The “Molar enthalpy of transition or fusion” value in data set [2] (Crystal 2) was found to be 11.7 ± 0.263 kcal/mol.
In the same order, the values of `CCCCCCCCCCCC[NH2+]CCCCCCCCCCCC.[Cl-]` [N-dodecyldodecan-1-aminium chloride] are 338.1 ± 3 K and 11.5 ± 0.239 kcal/mol.
Consider `CCCCCCCCCCCC[NH2+]CCCCCCCCCCCC.O=P([O-])(O)O` [N-dodecyldodecan-1-aminium dihydrogen phosphate], for which the results for the Triple point temperature in data set [1] (Crystal 2) and in data set [1] (Crystal 3) were 363.1 ± 3 K and 328.1 ± 3 K, respectively. Moreover, the “Molar enthalpy of transition or fusion” value in data set [2] (Crystal 2) came to 19.8 ± 0.717 kcal/mol.
Consider `CCCCCCCCCCCC[NH2+]CCCCCCCCCCCC.O=S(=O)([O-])O` [N-dodecyldodecan-1-aminium hydrogen sulfate], for which the Triple point temperature in data set [1] (Crystal 2) worked out at 373.1 ± 3 K; in data set [1] (Crystal 3), 347.1 ± 3 K. Further, the “Molar enthalpy of transition or fusion” value in data set [2] (Crystal 3) was 7.17 ± 0.478 kcal/mol.
Turning to `CCCCCCCCCCCC[NH2+]CCCCCCCCCCCC.[I-]` [N-dodecyldodecan-1-aminium iodide], the Triple point temperature in data set [1] (Crystal 2) is recorded as 338.1 ± 3 K. For the same compound, the “Molar enthalpy of transition or fusion” value in data set [2] (Crystal 2) was found to be 9.2 ± 0.239 kcal/mol.
With `CCCCCCCCCCCC[NH2+]CCCCCCCCCCCC.O=[N+]([O-])[O-]` [N-dodecyldodecan-1-aminium nitrate], in data set [1] (Crystal 2), the Triple point temperature worked out at 339.1 ± 3 K. Moreover, in data set [2] (Crystal 2), the “Molar enthalpy of transition or fusion” value was 18.4 ± 0.239 kcal/mol.
The corresponding values for `CCCCCCCCCCCC[NH2+]CCCCCCCCCCCC.[O-][Cl+3]([O-])([O-])[O-]` [N-dodecyldodecan-1-aminium perchlorate] are 335.1 ± 3 K and 17.2 ± 0.478 kcal/mol.
The corresponding values for `CCCCCCCCCCCCCCCCCC[NH2+]CCCCCCCCCCCCCCCCCC.[Br-]` [N-octadecyloctadecan-1-aminium bromide] are 371.15 ± 3 K and 19.4 ± 0.478 kcal/mol.
With `CCCCCCCCCCCCCCCCCC[NH2+]CCCCCCCCCCCCCCCCCC.[Cl-]` [N-octadecyloctadecan-1-aminium chloride], in data set [1] (Crystal 2), the Triple point temperature is 364.35 ± 3 K. The “Molar enthalpy of transition or fusion” value in data set [2] (Crystal 2) was found to be 23.2 ± 0.478 kcal/mol.
In the case of `CCCCCCCCCCCCCCCCCC[NH2+]CCCCCCCCCCCCCCCCCC.O=S(=O)([O-])O` [N-octadecyloctadecan-1-aminium hydrogen sulfate], the Triple point temperature in data set [1] (Crystal 2) turned out to be 355.1 ± 3 K; in data set [1] (Crystal 3) it was 343.1 ± 3 K. Also, the “Molar enthalpy of transition or fusion” value in data set [2] (Crystal 3) came out at 26.1 ± 0.717 kcal/mol.
Regarding `CCCCCCCCCCCCCCCCCC[NH2+]CCCCCCCCCCCCCCCCCC.[I-]` [N-octadecyloctadecan-1-aminium iodide], the Triple point temperature in data set [1] (Crystal 2) amounted to 366.15 ± 3 K. Also, in data set [2] (Crystal 2), the “Molar enthalpy of transition or fusion” value worked out at 17.9 ± 0.717 kcal/mol.
In the same order, the values of `CCCCCCCCCCCCCCCCCC[NH2+]CCCCCCCCCCCCCCCCCC.O=[N+]([O-])[O-]` [N-octadecyloctadecan-1-aminium nitrate] are 366.65 ± 3 K and 26.1 ± 0.717 kcal/mol.
Regarding `CCCCCCCCCCCCCCCCCC[NH2+]CCCCCCCCCCCCCCCCCC.[O-][Cl+3]([O-])([O-])[O-]` [N-octadecyloctadecan-1-aminium perchlorate], the Triple point temperature in data set [1] (Crystal 2) worked out at 361.25 ± 3 K. Besides, the “Molar enthalpy of transition or fusion” value in data set [2] (Crystal 2) amounted to 27.49 ± 0.239 kcal/mol.
For `CCCCCCCCNCCCCCCCC.Cl` [N-octyl-1-octaminium hydrochloride], in data set [1] (Crystal 2), the Triple point temperature was 294.1 ± 3 K. For the same compound, the “Molar enthalpy of transition or fusion” value in data set [2] (Crystal 2) was found to be 8.84 ± 0.239 kcal/mol.
In the same order, the values of `CCCCCCCC[NH2+]CCCCCCCC.[Br-]` [N-octyloctan-1-aminium bromide] are 303.1 ± 5 K and 5.98 ± 0.239 kcal/mol.
Turning to `CCCCCCCC[NH2+]CCCCCCCC.O=P([O-])(O)O` [N-octyloctan-1-aminium dihydrogen phosphate], the Triple point temperature in data set [1] (Crystal 2) is listed as 333.1 ± 3 K.
For `CCCCCCCC[NH2+]CCCCCCCC.[I-]` [N-octyloctan-1-aminium iodide], the Triple point temperature was 271.1 ± 1 K in data set [1] (Crystal 2) and 267.1 ± 1 K in data set [1] (Crystal 3). The “Molar enthalpy of transition or fusion” value in data set [2] (Crystal 3) stood at 5.02 ± 0.239 kcal/mol.
As to `CCCCCCCC[NH2+]CCCCCCCC.O=[N+]([O-])[O-]` [N-octyloctan-1-aminium nitrate], the Triple point temperature in data set [1] (Crystal 2) is reported as 318.1 ± 3 K. Further, the “Molar enthalpy of transition or fusion” value in data set [2] (Crystal 2) stood at 12.8 ± 0.239 kcal/mol.
With `CCCCCCCC[NH2+]CCCCCCCC.[O-][Cl+3]([O-])([O-])[O-]` [N-octyloctan-1-aminium perchlorate], the Triple point temperature in data set [1] (Crystal 2) was 296.1 ± 10 K. For the same compound, the “Molar enthalpy of transition or fusion” value in data set [2] (Crystal 2) came to 8.84 ± 0.478 kcal/mol.
In the same order, the values of `CCCCCCCCCC[NH2+]CCCCCCCCCC.[Cl-]` [didecylammonium chloride] are 321.1 ± 3 K and 9.56 ± 0.239 kcal/mol.
`CCCCCCCC[NH2+]CCCCCCCC.O=S(=O)([O-])O` [dioctylammonium hydrogen sulfate]: the Triple point temperature in data set [1] (Crystal 2) came to 463.15 ± 3 K; in data set [1] (Crystal 3), 371.1 ± 3 K; in data set [1] (Crystal 4), 289.1 ± 3 K. Further, the “Molar enthalpy of transition or fusion” value in data set [2] (Crystal 2) stood at 1.15 ± 0.717 kcal/mol; in data set [2] (Crystal 3), 0.335 ± 0.0717 kcal/mol; in data set [2] (Crystal 4), 0.98 ± 0.0478 kcal/mol.
